Like-named read-outs stand apart in the source and are kept apart here. Marks after values point to notes of the source that are not given here. Each block holds one compound with its values, some of them ahead of it.
Assays:
22Rv1 = test: Proliferation assay of prostate cancer cell lines with R1881 (Cell Titre-Glo, 144 h); format: cell-based, human; details: 22Rv1, 0.1 nM R1881, 144 hour exposure, single compound
Protocol: (§3) Tumor cells were propagated in a humidified 37° C. incubator in their respective growth medium supplemented with 10% fetal calf serum. […] Cell viability was assessed after 144 hour exposure, except for PC-3 cells where measurement took place after 96 hour exposure, with the Cell Titre-Glo Luminescent Cell Viability Assay (Promega).

SNU-449 = test: Proliferation assay, mono and fixed-ratio combinations (Cell Titre-Glo, 96 h); format: cell-based, human; details: SNU-449, single compound, 96 hour exposure
Protocol: (§4) Tumor cells were propagated in a humidified 37° C. incubator in their respective growth medium supplemented 10% fetal calf serum. […] Cell viability was assessed after 96 hour exposure with the Cell Titre-Glo Luminescent Cell Viability Assay (Promega).

IGR-OV1 cancer xenograft = test: Human IGR-OV1 endometrial cancer xenograft model; format: in vivo, female NMRI nude mice; details: IGR-OV1, day 55 after tumor inoculation
Protocol: (§5) The oral application volume was 10 ml/kg and the intravenous application volume 5 ml/kg. The time interval between two applications per day was 6-7 h. […] The tumor size and the body weight were determined three times weekly. Changes in the body weight compared to the initial body weight at the start of treatment were a measure of treatment-related toxicity (>10%=critical, stoppage in treatment until recovery, >20%=toxic, termination). The tumor area was detected by means of an electronic caliper gauge [length (mm)×width (mm)]. In vivo anti-tumor efficacy is presented as T/C ratio (Treatment/Control) calculated with tumor areas at day of termination of control group by the formula [(tumor area of treatment group at day x)−(tumor area of treatment group at day before first treatment)]/[(tumor area control group at day x)−(tumor area of control group at day before first treatment)]. […] A one-way analysis of variance was performed and differences to the control were compared by a pair-wise comparison procedure (Dunn's method).

[1] = system: IGR-OV1 endometrial cancer xenograft; test: Human IGR-OV1 endometrial cancer xenograft model; format: in vivo, female NMRI nude mice; details: IGR-OV1; 10 mg/kg, i.v., once daily, 2 days on/5 days off, days 1, 2 each week
Protocol: as §5

[2] = system: Ri-1 B cell lymphoma xenograft; test: Human Ri-1 B cell lymphoma xenograft model; format: in vivo, female NOD/SCID mice
Protocol: as §5

LNCaP = test: Proliferation assay of prostate cancer cell lines with R1881 (Cell Titre-Glo, 144 h); format: cell-based, human; details: 0.3 nM R1881, 144 hour exposure, single compound
Protocol: as §3

C4-2B = test: as above; format: cell-based, human; details: 0.3 nM R1881, 144 hour exposure, single compound
Protocol: as §3

PLC/PRF/5 = test: Proliferation assay, mono and fixed-ratio combinations (Cell Titre-Glo, 96 h); format: cell-based, human; details: PLC/PRF/5, single compound, 96 hour exposure
Protocol: as §4

IGR-OV1 = test: as above; format: cell-based, human; details: IGR-OV1, single compound, 96 hour exposure
Protocol: (§6) Tumor cells were propagated in a humidified 37° C. incubator in their respective growth medium supplemented 10% fetal calf serum. […] Cell viability was assessed after 96 hour exposure with the Cell Titre-Glo Luminescent Cell Viability Assay (Promega). […] IC50 isobolograms were plotted with the actual concentrations of the two compounds on the x- and y-axis, and the combination index (CI) was calculated according to the median-effect model of Chou-Talalay [Chou T. C.

A2780 = test: 72-hour growth assay of ovary cancer cell lines (Cell Titre-Glo); format: cell-based, human; details: A2780, single compound, 72 hour exposure
Protocol: (§7) The effects of combinations of the present invention were evaluated using combination index isobologram analysis for in vitro assessment. The efficacy parameters were the effects in a 72-hour growth assay. Tumor cells were propagated in a humidified 37° C. incubator in their respective growth medium (RPMI) supplemented with 10% fetal calf serum. […] Cell viability was assessed after 72 hour exposure with the Cell Titre-Glo Luminescent Cell Viability Assay (Promega). […] IC50 isobolograms were plotted with the actual concentrations of the two compounds on the x- and y-axis, and the combination index (CI) was calculated according to the median-effect model of Chou-Talalay [Chou T. C.

[3] = system: 22Rv1 prostate cancer xenograft; test: Human 22Rv1 prostate cancer xenograft model; format: in vivo, male Fox Chase SCID mice
Protocol: as §5

SUM-149 = test: Proliferation assay, mono and fixed-ratio combinations (Cell Titre-Glo, 96 h); format: cell-based, human; details: SUM-149, single compound, 96 hour exposure
Protocol: as §4

[4] = system: SUM-149 breast cancer xenograft; test: Human SUM-149 breast cancer xenograft model; format: in vivo, female NMRI nude mice
Protocol: as §5

SK-OV-3 = test: Proliferation assay, mono and fixed-ratio combinations (Cell Titre-Glo, 96 h); format: cell-based, human; details: SK-OV-3, single compound, 96 hour exposure
Protocol: as §6

OVCAR-3 = test: 72-hour growth assay of ovary cancer cell lines (Cell Titre-Glo); format: cell-based, human; details: OVCAR-3, single compound, 72 hour exposure
Protocol: as §7

Huh-7 = test: Proliferation assay, mono and fixed-ratio combinations (Cell Titre-Glo, 96 h); format: cell-based, human; details: Huh-7, single compound, 96 hour exposure
Protocol: as §6

HCT 116 = test: as above; format: cell-based, human; details: HCT 116, single compound, 96 hour exposure
Protocol: as §6

MDA-MB-468 = test: as above; format: cell-based, human; details: MDA-MB-468, single compound, 96 hour exposure
Protocol: as §4

VCaP = test: Proliferation assay of prostate cancer cell lines with R1881 (Cell Titre-Glo, 144 h); format: cell-based, human; details: 0.1 nM R1881, 144 hour exposure, single compound
Protocol: as §3

PC-3 = test: Proliferation assay of prostate cancer cell lines with R1881 (Cell Titre-Glo, 96 h); format: cell-based, human; details: PC-3, 0.1 nM R1881, 96 hour exposure, single compound
Protocol: as §3

[5] = system: small cell lung cancer cell line NCI-H1048; test: Full matrix combination, 72-hour proliferation assay (CellTiter-Glo); format: cell-based
Protocol: (§1) Percentage of control (DMSO) in tumor cell growth assay in vitro is used for the assessment of combination effects.
(§2) The efficacy parameters were the effects in a 72-hour assay. Tumor cells were cultured in 37° C. incubator in their respective growth medium and serum according to the protocol from providers. […] Cell viability was assessed after 72 hour exposure with the Cell Titre-Glo Luminescent Cell Viability Assay (Promega).

[6] = system: pancreatic cancer cell line Capan-1; test: as above; format: cell-based; details: Capan-1, single agent
Protocol: as §1, §2

[7] = system: ovarian cancer cell lines SK-OV-3; test: as above; format: cell-based; details: SK-OV-3, single agent Compound A
Protocol: as §1, §2

NCI-H460 = test: Proliferation assay of cell lines treated with Compound A, Compound B and fixed-ratio combinations (Cell Titre-Glo, 96 h); format: cell-based, human; details: NCI-H460, single compound, 96 hour exposure
Protocol: as §6

[8] = Ri-1, 10 mg/kg, i.v., once daily, 2 days on/5 days off, days 1, 2 each week
[9] = SUM-149, 10 mg/kg, i.v., once daily, 2 days on/5 days off, days 1, 2 each week

IC50 (22Rv1): 0.05 µM | IC50 (SNU-449): 0.1 µM | Max. weight loss (%) [1]: −6% | Max. weight loss (%) [2, 8]: −11% | IC50 (LNCaP): 0.008 µM | IC50 (C4-2B): 0.092 µM | IC50 (A2780): 0.0374 µM | Max. weight loss (%) ([3]; 22Rv1, 14 mg/kg, i.v., once daily, 2 days on/5 days off, days 1, 2 each week): −8% | Max. weight loss (%) [4, 9]: −10% | IC50 (SK-OV-3): 0.082 µM | IC50 (OVCAR-3): 0.12 µM | IC50 (Huh-7): 0.021 µM | IC50 (HCT 116): 0.095 µM | IC50 (MDA-MB-468): 0.28 µM | IC50 (VCaP): 0.013 µM | IC50 (PC-3): 0.1 µM | IC50 (NCI-H460): 0.063 µM
Structure (SMILES): COc1c(OCCCN2CCOCC2)ccc2c1N=C(NC(=O)c1cnc(N)nc1)N1CCN=C21.Cl.Cl [Compound A, 2-amino-N-[7-methoxy-8-(3-morpholin-4-ylpropoxy)-2,3-dihydroimid-azo[1,2-c]quinazolin-5-yl]pyrimidine-5-carboxamide dihydrochloride]
Anti-tumor efficacy of monotherapy compared to control (IGR-OV1 cancer xenograft): good to moderate and statistically significant improved anti-tumor efficacy | T/C [1]: 0.32* | Anti-tumor efficacy of monotherapy compared to control ([2]; Ri-1, day 38 after tumor inoculation): good and statistically significant improved anti-tumor efficacy | T/C [2, 8]: 0.09* | IC50 (PLC/PRF/5): 0.18 µM | IC50 (IGR-OV1): 0.019 µM | Anti-tumor efficacy of monotherapy compared to control ([3]; 22Rv1, at the day of control group termination): weak to moderate and statistically significant improved anti-tumor efficacy | T/C ([3]; 22Rv1, 14 mg/kg, i.v., once daily, 2 days on/5 days off, days 1, 2 each week, tumor area at termination of control group): 0.51* | IC50 (SUM-149): 0.01 µM | Anti-tumor efficacy of monotherapy compared to control ([4]; SUM-149, day 49 after tumor inoculation): weak to moderate and statistically significant improved anti-tumor efficacy | T/C [4, 9]: 0.58* | Concentration at which treatment led to tumor killing ([5]; NCI-H1048, single agent Compound A, 72-hour proliferation assay): 0.025 µM | Concentration at which single agent led to moderate anti-proliferation effects [6]: 0.025 µM | Concentration at which single agent showed anti-proliferative effects [7]: 0.025 µM

Structure (SMILES): C[C@@H]1COCCN1c1cc(-c2ccnn2C)c2ccnc(-c3ccn[nH]3)c2n1 [Compound B, 2-[(3R)-3-methylmorpholin-4-yl]-4-(1-methyl-1H-pyrazol-5-yl)-8-(1H-pyrazol-5-yl)-1,7-naphthyridine]
Concentration at which treatment led to tumor killing [5]: 0.253 µM

From patent US20210369724A1, “COMBINATION OF ATR KINASE INHIBITORS WITH 2,3-DIHYDROIMIDAZO[1,2-C]QUINAZOLINE COMPOUNDS” (Bayer Aktiengesellschaft, priority 2018, published 2021)
